Data published in paper PMC10227015, “From a drug repositioning to a structure-based drug design approach to tackle acute lymphoblastic leukemia” (Nature Communications, 2023).
Where two headings read alike, the source gives them in different places.

Columns and labels:
CCRF-CEM cell line = experiment: dCK cellular assay: CCRF-CEM proliferation in the presence of dT and dC; type: cell-based, human
Method in brief: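 Two conditions in T-ALL CCRF-CEM cells: compound only, and compound with thymidine blocking de novo synthesis and deoxycytidine rescuing via dCK. Metabolic dye fluorescence (560/590 nm) gives % proliferation vs DMSO; IC50s, mean ± SD of at least three triplicate runs.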

dCK-C3S-S74E [1] = experiment: Thermal shift assay (TSA); settings: for ΔTm, dCK thermal stabilization (TSA): 5 μM protein, 50 μM compound; for THERMAL SHIFT ASSAY +Tm (°): mean ± SD
Chain of dCK-C3S-S74E (P27707 whole entry S74E, form open): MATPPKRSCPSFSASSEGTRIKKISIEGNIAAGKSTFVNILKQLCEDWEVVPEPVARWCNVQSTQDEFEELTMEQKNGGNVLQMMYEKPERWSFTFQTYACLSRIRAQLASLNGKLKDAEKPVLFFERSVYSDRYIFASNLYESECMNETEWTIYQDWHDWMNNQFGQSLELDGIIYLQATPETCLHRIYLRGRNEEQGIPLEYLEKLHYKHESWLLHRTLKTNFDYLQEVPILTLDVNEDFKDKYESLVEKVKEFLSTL

dCK-C3S-S74E [2] = experiment: Enzymatic assay (PK/LDH coupled), dC phosphorylation by dCK in the presence of ATP; type: biochemical, human; settings: for IC50: presence of ATP, read-out: ENZYMATIC ASSAY IC50
Method in brief: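 Continuous PK/LDH-coupled readout tracked NADH fluorescence loss at 460 nm while 1 mM ATP and 100 µM dC were turned over by 100 nM (or 50 nM) dCK-C3S-S74E in HEPES pH 7.5 buffer with MgCl2, DTT and KCl. Linear-range slopes normalized to no-compound control; IC50 fitted by nonlinear regression across compound concentrations.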

CCCN(c1nc(-c2nc(N)cc(N)n2)cs1)c1cc(-c2ccc(S(=O)(=O)N3CCN(C)CC3)cc2C(F)(F)F)ccc1C [OR0642]
activity at 10 pM (CCRF-CEM cell line; Homo sapiens, CCRF-CEM, 0.01 nM, dT 200 µM + dC 1 µM, read-out: Cell proliferation of the CCRF-CEM cell line Mean (% prolif)): 90.6%
activity at 30 pM (CCRF-CEM cell line; Homo sapiens, CCRF-CEM, 0.03 nM, dT 200 µM + dC 1 µM, read-out: Cell proliferation of the CCRF-CEM cell line Mean (% prolif)): 93.3%
activity at 91 pM (CCRF-CEM cell line; Homo sapiens, CCRF-CEM, 0.091 nM, dT 200 µM + dC 1 µM, read-out: Cell proliferation of the CCRF-CEM cell line Mean (% prolif)): 88.7%
activity at 0.00027 µM (CCRF-CEM cell line; Homo sapiens, CCRF-CEM, 0.27 nM, dT 200 µM + dC 1 µM, read-out: Cell proliferation of the CCRF-CEM cell line Mean (% prolif)): 87.2%
activity at 0.00082 µM (CCRF-CEM cell line; Homo sapiens, CCRF-CEM, 0.82 nM, dT 200 µM + dC 1 µM, read-out: Cell proliferation of the CCRF-CEM cell line Mean (% prolif)): 79.7%
activity at 0.0025 µM (CCRF-CEM cell line; Homo sapiens, CCRF-CEM, 2.5 nM, dT 200 µM + dC 1 µM, read-out: Cell proliferation of the CCRF-CEM cell line Mean (% prolif)): 68.2%
activity at 0.0074 µM (CCRF-CEM cell line; Homo sapiens, CCRF-CEM, 7.4 nM, dT 200 µM + dC 1 µM, read-out: Cell proliferation of the CCRF-CEM cell line Mean (% prolif)): 43.1%
activity at 0.022 µM (CCRF-CEM cell line; Homo sapiens, CCRF-CEM, 22 nM, dT 200 µM + dC 1 µM, read-out: Cell proliferation of the CCRF-CEM cell line Mean (% prolif)): 24.9%
activity at 0.067 µM (CCRF-CEM cell line; Homo sapiens, CCRF-CEM, 67 nM, dT 200 µM + dC 1 µM, read-out: Cell proliferation of the CCRF-CEM cell line Mean (% prolif)): 18%
activity at 0.2 µM (CCRF-CEM cell line; Homo sapiens, CCRF-CEM, 200 nM, dT 200 µM + dC 1 µM, read-out: Cell proliferation of the CCRF-CEM cell line Mean (% prolif)): 14.6%
IC50 (CCRF-CEM cell line; Homo sapiens, CCRF-CEM, dT 200 µM + dC 1 µM, 72 h, read-out: IC50 cell proliferation (dCK cellular assay)): 2.2 nM
increased potency in the cell proliferation assay (CCRF-CEM cell line; compared with dCKi1): more than 1000 times
potency increase (CCRF-CEM cell line; compared with masitinib): more than 1000 times
ΔTm, dCK thermal stabilization (TSA) (dCK-C3S-S74E [1]): 22.2 °C
ΔTm (º) (TSA) (dCK-C3S-S74E [1]; Figure 2a, mean): 22.23 º
Thermal Shift Assay Mean (ΔTm (º)) (dCK-C3S-S74E [1]; Figure 2b): 22.2 º
improved dCK thermal stability (dCK-C3S-S74E [1]; compared to dCKi1): 7.9 °C
improved dCK thermal stability (dCK-C3S-S74E [1]; compared to masitinib): 15 °C
THERMAL SHIFT ASSAY +Tm (°) (dCK-C3S-S74E [1]): 22.2 ± 0.9 °
Enzymatic activity (ATP) Mean (% activity) (dCK-C3S-S74E [2]; 0.01 µM): 79.2%
Enzymatic activity (ATP) Mean (% activity) (dCK-C3S-S74E [2]; 0.02 µM): 80.5%
Enzymatic activity (ATP) Mean (% activity) (dCK-C3S-S74E [2]; 0.04 µM): 65.5%
Enzymatic activity (ATP) Mean (% activity) (dCK-C3S-S74E [2]; 0.08 µM): 63.0%
Enzymatic activity (ATP) Mean (% activity) (dCK-C3S-S74E [2]; 0.16 µM): 43.5%
Enzymatic activity (ATP) Mean (% activity) (dCK-C3S-S74E [2]; 0.31 µM): 8.3%
Enzymatic activity (ATP) Mean (% activity) (dCK-C3S-S74E [2]; 0.63 µM): 4.2%
Enzymatic activity (ATP) Mean (% activity) (dCK-C3S-S74E [2]; 1.25 µM): 2.4%
Enzymatic activity (ATP) Mean (% activity) (dCK-C3S-S74E [2]; 2.5 µM): -0.5%
IC50 (dCK-C3S-S74E [2]; [dCK] = 50 nM (footnote A)): 106 ± 30 nM

Cc1ccc(NC(=O)c2ccc(CN3CCN(C)CC3)cc2)cc1Nc1nc(-c2nccc(N)n2)cs1 [dCKi1]
activity at 0.039 µM (CCRF-CEM cell line; Homo sapiens, CCRF-CEM, 39 nM, dT 200 µM + dC 1 µM, read-out: Cell proliferation of the CCRF-CEM cell line Mean (% prolif)): 94.3%
activity at 0.078 µM (CCRF-CEM cell line; Homo sapiens, CCRF-CEM, 78 nM, dT 200 µM + dC 1 µM, read-out: Cell proliferation of the CCRF-CEM cell line Mean (% prolif)): 88.7%
activity at 0.156 µM (CCRF-CEM cell line; Homo sapiens, CCRF-CEM, 156 nM, dT 200 µM + dC 1 µM, read-out: Cell proliferation of the CCRF-CEM cell line Mean (% prolif)): 91%
activity at 0.312 µM (CCRF-CEM cell line; Homo sapiens, CCRF-CEM, 312 nM, dT 200 µM + dC 1 µM, read-out: Cell proliferation of the CCRF-CEM cell line Mean (% prolif)): 94.4%
activity at 0.625 µM (CCRF-CEM cell line; Homo sapiens, CCRF-CEM, 625 nM, dT 200 µM + dC 1 µM, read-out: Cell proliferation of the CCRF-CEM cell line Mean (% prolif)): 93.2%
activity at 1.25 µM (CCRF-CEM cell line; Homo sapiens, CCRF-CEM, 1250 nM, dT 200 µM + dC 1 µM, read-out: Cell proliferation of the CCRF-CEM cell line Mean (% prolif)): 98.2%
activity at 2.5 µM (CCRF-CEM cell line; Homo sapiens, CCRF-CEM, 2500 nM, dT 200 µM + dC 1 µM, read-out: Cell proliferation of the CCRF-CEM cell line Mean (% prolif)): 91.8%
activity at 5 µM (CCRF-CEM cell line; Homo sapiens, CCRF-CEM, 5000 nM, dT 200 µM + dC 1 µM, read-out: Cell proliferation of the CCRF-CEM cell line Mean (% prolif)): 67.7%
activity at 10 µM (CCRF-CEM cell line; Homo sapiens, CCRF-CEM, 10000 nM, dT 200 µM + dC 1 µM, read-out: Cell proliferation of the CCRF-CEM cell line Mean (% prolif)): 31%
activity at 20 µM (CCRF-CEM cell line; Homo sapiens, CCRF-CEM, 20000 nM, dT 200 µM + dC 1 µM, read-out: Cell proliferation of the CCRF-CEM cell line Mean (% prolif)): 8.1%
activity at 10 µM (CCRF-CEM cell line; Homo sapiens, CCRF-CEM, compound 10 µM + dT 111 µM + dC 1 µM, 72 h, read-out: Cell proliferation of the CCRF-CEM cell line Mean (% prolif)): 47%
IC50 (CCRF-CEM cell line; Homo sapiens, read-out: dCK CELLULAR ASSAY IC50 (nM), CCRF-CEM, 200 µM dT and 1 µM dC, read-out: dCK […] ASSAY IC50): 6950 ± 2530 nM
IC50 (CCRF-CEM cell line; Homo sapiens, CCRF-CEM, dT 200 µM + dC 1 µM, 72 h, read-out: IC50 cell proliferation): 6900 nM
ΔTm, dCK thermal stabilization (TSA) (dCK-C3S-S74E [1]): 14.3 °C
Thermal Shift Assay Mean (ΔTm (º)) (dCK-C3S-S74E [1]; Figure 1b): 14.3 º
THERMAL SHIFT ASSAY +Tm (°) (dCK-C3S-S74E [1]): 14.3 ± 0.4 °
Enzymatic activity (ATP) Mean (% activity) (dCK-C3S-S74E [2]; 0.16 µM): 93.7%
Enzymatic activity (ATP) Mean (% activity) (dCK-C3S-S74E [2]; 0.31 µM): 94.8%
Enzymatic activity (ATP) Mean (% activity) (dCK-C3S-S74E [2]; 0.63 µM): 91.7%
Enzymatic activity (ATP) Mean (% activity) (dCK-C3S-S74E [2]; 1.25 µM): 77.3%
Enzymatic activity (ATP) Mean (% activity) (dCK-C3S-S74E [2]; 2.5 µM): 51.8%
Enzymatic activity (ATP) Mean (% activity) (dCK-C3S-S74E [2]; 5 µM): 30.3%
Enzymatic activity (ATP) Mean (% activity) (dCK-C3S-S74E [2]; 10 µM): 11.5%
Enzymatic activity (ATP) Mean (% activity) (dCK-C3S-S74E [2]; 20 µM): 3.9%
Enzymatic activity (ATP) Mean (% activity) (dCK-C3S-S74E [2]; 40 µM): 3.1%
IC50 (dCK-C3S-S74E [2]; [dCK] = 100 nM): 2660 ± 608 nM
